In one experiment the target is T1, SpsB (Staphylococcus aureus, UniProt P0A070).
T1 construct: using a bacterial membrane fraction as a source of SpsB; from tissue
T1 sequence (P0A070 1-191): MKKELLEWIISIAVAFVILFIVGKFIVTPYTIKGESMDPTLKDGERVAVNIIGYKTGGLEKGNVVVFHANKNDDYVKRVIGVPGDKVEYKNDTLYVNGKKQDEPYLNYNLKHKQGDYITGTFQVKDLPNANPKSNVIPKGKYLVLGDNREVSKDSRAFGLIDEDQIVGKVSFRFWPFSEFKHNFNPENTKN
Nature of the experiment: Inhibition of SpsB enzyme activity (fluorescence-based assay, bacterial membrane fraction). The experiment is classed as biochemical. How it is done: Signal peptidase enzyme activity was measured in a fluorescence-based assay using a bacterial membrane fraction as a source of SpsB (See Bruton et al., 2003, Eur J Med Chem 38:351-356). The SpsB substrate is a synthetic lipopeptide, decanoyl-K(DABCYL)-TPTAKA↓ASKKD-D(EDANS)—NH2 (prepared by JPT Peptide Technologies, Berlin, Germany). Assays were performed with 20 μM peptide substrate (Km≈5 μM) and reactions were initiated with enzyme addition (final protein concentration of 0.6 mg/mL). SpsB mediated cleavage of the peptide substrate was detected as an increase in fluorescence (excitation 340 nm/emission 460 nm).

Experiment [1] deals with MB 5393 (COL), a methicillin-resistant S. aureus strain. Nature of the experiment: Determination of minimum and synergistic inhibitory concentration. The experiment is classed as cell-based. As to conditions: for SIC: presence of imipenem (4 μg/mL); for MIC: Staphylococcus aureus. The procedure:
MB 5393 (COL), a methicillin-resistant S. aureus strain, was inoculated into Trypticase Soy Broth (TSB, BBL) and grown in a humidified incubator for 18 hours with rotary shaking at 220 rpm and kept on ice until used.
A quantity of imipenem (Merck Chemical Collection) was weighed out and dissolved into sterile 10 mM MOPS buffer at pH 7. This solution was diluted to 1600 μg/mL, 200 μg/mL, and 25 μg/mL and filter-sterilized through a 0.45 μm filter. From these solutions, seven 1:2 serial dilutions were prepared using sterile 10 mM MOPS buffer at pH 7. The final concentration ranges tested were 128 to 2 μg/mL, 16 to […], and 2 to 0.03 μg/mL. The solutions were kept refrigerated until used.
Test compounds (EXAMPLES 1-67) were prepared in sterile water or DMSO at a concentration of 3.2 mg/mL. From this solution, 11 serial 1:2 dilutions were prepared using sterile water. The final concentration range tested was 64 to 0.0313 μg/mL. The solutions were kept refrigerated until used.
Two-fold serial dilutions of test compounds were tested in the presence and absence of subinhibitory concentrations of imipenem (4 μg/mL) in 96-well U bottom microliter dishes in microbiological growth media. The plates were inoculated with bacterial cells to a final concentration of ˜5×10^5 CFU/mL. Test plates were incubated stationery at 37° C. for 22-24 hours.
After 22 hours of incubation, the Minimum inhibitory concentrations (MICs) were determined, defined as the lowest concentration of antibiotic that prevented all visible growth in the absence of imipenem. Synergistic inhibitory concentrations (SICs) were determined, defined as the lowest concentration of antibiotic that prevented all visible growth in the presence of imipenen.

Where [2] appears, read: MRSA COL, absence of imipenem, 22 hours, read-out: MIC.

Like-named read-outs stand apart in the source and are kept apart here.

Turning to `CCCCCCCCCc1ccc(-c2ccc(C(=O)NCCC(=O)N[C@@H](CCCCO)C(=O)N(C)[C@@H]3C(=O)N[C@@H](C)C(=O)N[C@H](C(=O)O)Cc4ccc(O)c(c4)-c4cc3ccc4O)cc2)cc1` [EXAMPLE 50], the IC50 (commonly the point on the concentration scale where inhibition reaches its midpoint) at SpsB was less than 10 nM. The SIC entry in experiment [1] (MRSA COL, 22 hours) is reported as “H (H: SIC 0.062-1)”. Also, the MIC (as a rule, the smallest concentration in the dilution series that meets the test's criterion for growth inhibition) in experiment [1] (setting [2]) is more than 8 µg/mL.

Compound `CCCCCCCCCCc1ccc2cc(C(=O)NCCC(=O)N3CCCC3C(=O)N(C)[C@@H]3C(=O)N[C@@H](C)C(=O)N[C@H](C(=O)O)Cc4ccc(O)c(c4)-c4cc3ccc4O)ccc2c1` (stereo in doubt) [EXAMPLE 14, (8S,11S,14S)-3,18-dihydroxy-11-methyl-14-(methyl{[(2R)-1-{3-[(6-decyl-2-naphthoyl)amino]propanoyl}pyrrolidin-2-yl]carbonyl}amino)-10,13-dioxo-9,12-diazatricyclo[13.3.1.1^2,6]icosa-1(19),2(20),3,5,15,17-hexaene-8-carboxylic acid] came in with an IC50 against SpsB of less than 10 nM. Further, the SIC entry in experiment [1] (MRSA COL, 22 hours) is listed as “G (G: SIC <0.0625)”. In experiment [1] (setting [2]), the MIC was less than 1 µg/mL.

On SpsB, `CCCCCCc1ccc(-c2ccc(C(=O)NCCC(=O)N[C@@H](CCCCN)C(=O)N(C)[C@@H]3C(=O)N[C@@H](C)C(=O)N[C@H](C(=O)O)Cc4ccc(O)c(c4)-c4cc3ccc4O)cc2)cc1` [EXAMPLE 31] had an IC50 of less than 10 nM. Also, the SIC entry in experiment [1] (MRSA COL, 22 hours) is reported as “G (G: SIC <0.0625)”. In experiment [1] (MRSA, 22 h), the MIC is less than 1 µg/mL.

`COc1ccc2cc1-c1cc(ccc1OC)[C@H](N(C)C(=O)[C@H](CCCCN)NC(=O)CCNC(=O)c1ccc(-c3ccc(CCCCCCCCC(C)(C)O)cc3)cc1)C(=O)N[C@@H](C)C(=O)N[C@H](C(=O)O)C2` [EXAMPLE 56] yielded an IC50 against SpsB of less than 10 nM. Moreover, the SIC entry in experiment [1] (MRSA COL, 22 hours) is given as “H (H: SIC 0.062-1)”. In experiment [1] (MRSA, 22 h), the minimal inhibitory concentration (MIC) lay within 1 to 8 µg/mL.

For `CCCCCCCCCc1ccc(-c2ccc(C(=O)NCCC(=O)N[C@@H](CCCCN)C(=O)N(C)[C@@H]3C(=O)N[C@@H](C)C(=O)N[C@H](C(=O)O)Cc4ccc(O)c(c4)-c4cc3ccc4O)nc2)cc1` [EXAMPLE 32], the IC50 at SpsB is less than 10 nM. For the same compound, in experiment [1] (MRSA COL, 22 hours), the SIC result was “G (G: SIC <0.0625)”. In addition, in experiment [1] (MRSA, 22 h), the MIC is less than 1 µg/mL.

On to `CCCCCCCCCc1ccc(-c2ccc(C(=O)NCCC(=O)N[C@@H](CCCCN)C(=O)N(C)[C@@H]3C(=O)N[C@@H](C)C(=O)N[C@H](C(=O)O)Cc4ccc(O)c(c4)-c4cc3ccc4O)cn2)cc1` [EXAMPLE 54], for which the IC50 against SpsB was less than 10 nM. The SIC entry in experiment [1] (MRSA COL, 22 hours) is given as “G (G: SIC <0.0625)”. The MIC in experiment [1] (MRSA, 22 h) is less than 1 µg/mL.

As for `CCCCCCCCCc1ccc(-c2ncc(C(=O)NCCC(=O)N[C@@H](CCCCN)C(=O)N(C)[C@@H]3C(=O)N[C@@H](C)C(=O)N[C@H](C(=O)O)Cc4ccc(O)c(c4)-c4cc3ccc4O)cn2)cc1` [EXAMPLE 26], on SpsB, the half-inhibitory concentration (IC50) is less than 10 nM. Further, in experiment [1] (MRSA COL, 22 hours), the SIC result is “G (G: SIC <0.0625)”. Moreover, the MIC in experiment [1] (MRSA, 22 h) was less than 1 µg/mL.

At SpsB, `CCCc1ccc(-c2ccc(C(=O)NCCC(=O)N[C@H](CCCCN)C(=O)N(C)[C@@H]3C(=O)N[C@@H](C)C(=O)N[C@H](C(=O)O)Cc4ccc(O)c(c4)-c4cc3ccc4O)cc2)cc1.O=C(O)C(F)(F)F` [EXAMPLE 4, (5R)-6-[[(7S,10S,13S)-13-carboxy-3,18-dihydroxy-10-methyl-8,11-dioxo-9,12-diazatricyclo[13.3.1.1^2,6]icosa-1(19),2(20),3,5,15,17-hexaen-7-yl](methyl)amino]-6-oxo-5-[(3-{[(4′-propylbipherryl-4-yl)carbonyl]amino}propanoyl)amino]hexan-1-aminium trifluoroacetate] registered an IC50 of more than 50 nM. For the same compound, in experiment [1] (MRSA COL, 22 hours), the SIC entry was “I (I: SIC >1)”. For the same compound, in experiment [1] (setting [2]), the MIC was more than 8 µg/mL.

On to `CCCCCCCCCc1ccc(-c2ccc(C(=O)NCCC(=O)N[C@@H](CCCCN)C(=O)N(C)[C@@H]3C(=O)N[C@@H](C)C(=O)N[C@H](C(=O)O)Cc4ccc(O)c(c4)-c4cc3ccc4O)c(C)c2)cc1` [EXAMPLE 43], for which, on SpsB, the half-maximal inhibitory concentration (IC50) was less than 10 nM. For the same compound, the SIC entry in experiment [1] (MRSA COL, 22 hours) is reported as “G (G: SIC <0.0625)”. In experiment [1] (MRSA, 22 h), the MIC is less than 1 µg/mL.

The compound `CCCc1ccc(-c2ccc(C(=O)NCCC(=O)N[C@@H](CCCNC(=N)N)C(=O)N(C)[C@@H]3C(=O)N[C@@H](C)C(=O)N[C@H](C(=O)O)Cc4ccc(O)c(c4)-c4cc3ccc4O)cc2)cc1.O=C(O)C(F)(F)F` [EXAMPLE 8, ({(4S)-5-[[(7S,10S,13S)-13-carboxy-3,18-dihydroxy-10-methyl-8,11-dioxo-9,12-diazatricyclo[13.3.1.1^2,6]icosa-1(19),2(20),3,5,15,17-hexaen-7-yl](methyl)amino]-5-oxo-4-[(3-{[(4′-propylbiphenyl-4-yl)carbonyl]amino}propanoyl)amino]pentyl}amino)(imino)methanaminium trifluoroacetate] gave a half-inhibitory concentration (IC50) on SpsB of 10 to 50 nM. The SIC entry in experiment [1] (MRSA COL, 22 hours) is “H (H: SIC 0.062-1)”. Further, the minimum inhibitory concentration (MIC) in experiment [1] (setting [2]) fell in the range of 1 to 8 µg/mL.

In turn, `CCCCCCCCCc1ccc(-c2ccc(C(=O)NCCC(=O)N3CCC[C@H]3C(=O)N(C)[C@@H]3C(=O)N[C@@H](C)C(=O)N[C@H](C(=O)O)Cc4ccc(O)c(c4)-c4cc3ccc4O)cc2)cc1` [EXAMPLE 18, (8S,11S,14S)-3,18-dihydroxy-11-methyl-14-(methyl{[(2)-1-(3-{[(4′-nonylbiphenyl-4-yl)carbonyl]amino}propanoyl)pyrrolidin-2-yl]carbonyl}amino)-10,13-dioxo-9,12-diazatricyclo[13.3.1.1^2,6]icosa-1(19),2(20),3,5,15,17-hexaene-8-carboxylic acid] registered a half-maximal inhibitory concentration (IC50) at SpsB of less than 10 nM. The SIC result in experiment [1] (MRSA COL, 22 hours) was “H (H: SIC 0.062-1)”. Moreover, the MIC in experiment [1] (setting [2]) is 1 to 8 µg/mL.

Turning to `CCCCCCCCCc1ccc(-c2ccc(C(=O)NCCC(=O)N3C[C@@H](N)C[C@H]3C(=O)N(C)[C@@H]3C(=O)N[C@@H](C)C(=O)N[C@H](C(=O)O)Cc4ccc(O)c(c4)-c4cc3ccc4O)cc2)cc1` [EXAMPLE 44], at SpsB, the 50% inhibitory concentration (IC50) is less than 10 nM. Besides, the SIC entry in experiment [1] (MRSA COL, 22 hours) is listed as “G (G: SIC <0.0625)”. In addition, the MIC in experiment [1] (MRSA, 22 h) is less than 1 µg/mL.

`CCCCc1ccc(-c2ccc(C(=O)NCCC(=O)N[C@@H](CCCCN)C(=O)N(C)[C@@H]3C(=O)N[C@@H](C)C(=O)N[C@H](C(=O)O)Cc4ccc(O)c(c4)-c4cc3ccc4O)cc2)cc1` [EXAMPLE 51] displayed an IC50 against SpsB of less than 10 nM. Further, the SIC result in experiment [1] (MRSA COL, 22 hours) was “G (G: SIC <0.0625)”. Also, in experiment [1] (MRSA, 22 h), the MIC is less than 1 µg/mL.

In turn, `C[C@@H]1NC(=O)[C@@H](N(C)C(=O)[C@H](CCCCN)NC(=O)CCNC(=O)c2ccc(-c3ccc(C4C5CC6CC(C5)CC4C6)cc3)cc2)c2ccc(O)c(c2)-c2cc(ccc2O)C[C@@H](C(=O)O)NC1=O` (stereo partly drawn) [EXAMPLE 21] yielded an IC50 at SpsB of less than 10 nM. Besides, the SIC entry in experiment [1] (MRSA COL, 22 hours) is reported as “G (G: SIC <0.0625)”. Further, in experiment [1] (MRSA, 22 h), the MIC is less than 1 µg/mL.

For `CCCc1ccc(-c2ccc(C(=O)NCCC(=O)NC(CCCCN)C(=O)N(C)[C@@H]3C(=O)N[C@@H](C)C(=O)N[C@H](C(=O)O)Cc4ccc(O)c(c4)-c4cc3ccc4O)cc2)cc1.O=C(O)C(F)(F)F` (stereo partly drawn) [EXAMPLE 2, 5-(R,S)-6-[[(7S,10S,3S)-13-carboxy-3,18-dihydroxy-10-methyl-8,11-dioxo-9,12-diazatricyclo[13.3.1.1^2,6]icosa-1(19),2(20),3,5,15,17-hexaen-7-yl](methyl)amino]-6-oxo-5-[(3-{[(4′-propylbiphenyl-4-yl)carbonyl]amino}propanoyl)amino]hexan-1-aminium trifluoroacetate], the IC50 at SpsB fell in the range of 10 to 50 nM. Moreover, the SIC entry in experiment [1] (MRSA COL, 22 hours) is on record as “H (H: SIC 0.062-1)”. Also, the MIC in experiment [1] (setting [2]) lay within 1 to 8 µg/mL.

Regarding `CCCCCCCCCCc1ccc2cc(C(=O)NCCC(=O)N[C@@H](CCCCN)C(=O)N(C)[C@@H]3C(=O)N[C@@H](C)C(=O)N[C@H](C(=O)O)Cc4ccc(O)c(c4)-c4cc3ccc4O)ccc2c1.O=C(O)C(F)(F)F` [EXAMPLE 17, (5S)-6-[[(7S,10S,13S)-13-carboxy-3,18-dihydroxy-10-methyl-8,11-dioxo-9,12-diazatricyclo[13.3.1.1^2,6]icosa-1(19),2(20),3,5,15,17-hexaen-7-yl](methyl)amino]-5-({3-[(6-decyl-2-naphthoyl)amino]propanoyl}amino)-6-oxohexan-1-aminium trifluoroacetate], at SpsB, the IC50 is less than 10 nM. Further, the SIC result in experiment [1] (MRSA COL, 22 hours) is given as “G (G: SIC <0.0625)”. Besides, the MIC in experiment [1] (setting [2]) is less than 1 µg/mL.

The values are drawn from patent US20130244929A1 (priority 2010, published 2013).
